The record followed here is US20030009213A1, “Stent having cover with drug delivery capability” (priority 2000, published 2003).

The nature of this data set: Release of Taxol from a coated ePTFE stent cover after implantation. In kind it is in vivo. The note with it: first week after implantation; ePTFE stent cover with outer layer of Taxol, gelatin and poly(e-caprolactone) mixture (20:20:60). The source says:
A polymeric stent cover, made of ePTFE, is provided with another layer of Taxol, gelatin, and poly(e-caprolactone) mixture (20:20:60) on the outside. 20% of the Taxol is released to the artery wall during the first week after implantation.

Take `CC(=O)O[C@H]1C(=O)[C@@]2(C)[C@H]([C@H](OC(=O)c3ccccc3)[C@]3(O)C[C@H](OC(=O)[C@H](O)[C@@H](NC(=O)c4ccccc4)c4ccccc4)C(C)=C1C3(C)C)[C@]1(OC(C)=O)CO[C@@H]1C[C@@H]2O` [Taxol]: the “Taxol released to the artery wall” value was 20%.
